Data published in ChEMBL document CHEMBL1157189, “S-Ribosylhomocysteine analogues with the carbon-5 and sulfur atoms replaced by a vinyl or (fluoro)vinyl unit” (Bioorg Med Chem, 2008).

System: Bacillus subtilis
Assay: Inhibition of CO2+ substituted Bacillus subtilis S-ribosyl-homocysteinase

A Ki of 96 µM was found for O[C@@H]1C[C@@H](/C=C/F)O[C@@H]1O (mixture of isomers) in this work.
